Measured values published in patent US7476649B2, “Antiproliferative and antiviral proteins and peptides” (priority 1998, dated 2009).
Values after ≈ are worked out from the molar mass of the structure shown. Where two headings read alike, the source gives them in different places.

Tests used:
[1] = tested on: type 1 herpes (HSV-1), strain McKrae; type: cell-based, Herpes Simplex Type I
[2] = tested on: type 1 herpes (HSV-1), strain McKrae; type: cell-based, Herpes Simplex Type I; remark: listed apart in the source
[3] = tested on: human embryonic lung cell line MRC-5
[4] = tested on: African green monkey cells (CV-1)
[5] = tested on: African green monkey cells (CV-1); remark: listed apart in the source
[6] = tested on: San Angelo (SAV); type: cell-based, San Angelo virus
[7] = tested on: San Angelo (SAV); assay: microbe, parasite or virus in culture; type: cell-based, San Angelo virus
[8] = in vitro; conditions: African green monkey
[9] = in vitro; conditions: African green monkey; remark: listed apart in the source
[10] = in vitro; conditions: African green monkey; remark: listed apart in the source
[11] = in vitro; conditions: African green monkey; remark: listed apart in the source

Nc1nc2c(ncn2COCCO)c(=O)[nH]1 [Acyclovir, acyclovir]
COMMENT (activity) [1]: Excellent activity.
COMMENT (activity) [2]: Excellent activity.
CC50 [3]: >100 µg/mL

Nc1ccn(C[C@@H](CO)OCP(=O)(O)O)c(=O)n1 [HPMPC, cidofovir]
CC50 [4]: >100 µg/mL
CC50 [5]: >100 µg/mL

NC(=O)c1ncn([C@@H]2O[C@H](CO)[C@@H](O)[C@H]2O)n1 [Ribavirin, ribavirin]
COMMENT (activity) [6]: Very good activity.
COMMENT (activity) [7]: Very good activity.
EC50 ([7]; San Angelo virus, Vero): 30 µg/mL (≈ 123 µM)
CC50 [8]: > 100 µg/mL
CC50 [9]: > 100 µg/mL
CC50 [10]: > 100 µg/mL
CC50 [11]: > 100 µg/mL
